Test results as given in patent publication US6855348B2, “Insecticidal composition derived from plants” (priority 2000, dated 2005).
Read-outs that look alike come from different tables or passages of the source.

What was measured:
Dermatophagoides farinae = tested on: Dermatophagoides farinae
Description: (§1) American house dust mite (Dermatophagoides farinae) and European house dust mite (Dermatophagoide pteronyssinus) were maintained at 75±5% RH (relative humidity) at 25±1° C., and were provided a feed mixture of fish meal and multi-vitamins in a ratio of 1 to 1 on a 12.5×10.5×5 cm container.
(§2) The starting concentration is important for the primary screening of bioactive compounds from plant extracts and oils. […] 1 mg of the methanol extracts or oils were suspended with 40 μl of methanol and were transferred to a colorless microtube (2 ml). The microtube was vertically shaken several times to disperse the contents to the wall and cap of the microtube and it was placed in a freeze dryer for 1 hour in order to volatilize the solvent. Twenty-five mites were placed on the prepared microtube, and all treatment groups were transferred to an incubator kept at […]. Active mites only were selected with a fine brush under a microscope. Mortalities were determined with a microscope at 24 hours and 48 hours after treatment. […] All tests were replicated four or more times. The percentage mortality was determined and transformed to arcsine square-root values for analysis of variance (ANOVA). Treatment means were compared and separated by Scheffe's test at the P=0.05 (SAS Institute, 1996). Means (±standard error) of untransformed data are reported. Controls received 40 μl of methanol.

[1] = tested on: Dermatophagoides pteronyssinus
Description: as §1, §2

house dust mites = type: in vivo; conditions: for acaricidal activity / mortality against two species of house dust mites: 1 mg/tube, 48 hours after treatment; for acaricidal activity: at 0.4 mg and less
Description: All tests were replicated four or more times. […] Means (±standard error) of untransformed data are reported. Controls received 40 μl of methanol.

[2] = tested on: mites inhabiting carpets and chairs; conditions: homes, cited from earlier work
[3] = synergic effect test, 0.25 mg/tube of each compound, 24 hr
[4] = 0.5 mg/tube, 48 hr, listed as Allyl isothiocyanate
[5] = 0.5 mg/tube, 48 hr, listed as Butyl isothiocyanate

| Structure (SMILES) | Mortality (Means ± standard error, %) (Dermatophagoides farinae; 0.125 mg/tube, 24 hr) | Mortality (Means ± standard error, %) (Dermatophagoides farinae; 0.125 mg/tube, 48 hr) | Mortality (Means ± standard error, %) (Dermatophagoides farinae; 0.2 mg/tube, 24 hr) | Mortality (Means ± standard error, %) (Dermatophagoides farinae; 0.2 mg/tube, 48 hr) | Mortality (Means ± standard error, %) (Dermatophagoides farinae; 0.25 mg/tube, 24 hr) | Mortality (Means ± standard error, %) (Dermatophagoides farinae; 0.25 mg/tube, 48 hr) | Mortality (Means ± standard error, %) (Dermatophagoides farinae; 0.3 mg/tube, 24 hr) | Mortality (Means ± standard error, %) (Dermatophagoides farinae; 0.3 mg/tube, 48 hr) | Mortality (Means ± standard error, %) (Dermatophagoides farinae; 0.4 mg/tube, 24 hr) [b %] | Mortality (Means ± standard error, %) (Dermatophagoides farinae; 0.4 mg/tube, 48 hr) | Mortality (Means ± standard error, %) (Dermatophagoides farinae; 0.5 mg/tube, 24 hr) | Mortality (Means ± standard error, %) (Dermatophagoides farinae; 0.5 mg/tube, 48 hr) | Mortality (Means ± standard error, %) (Dermatophagoides farinae; 1 mg/tube, 24 hr) | Mortality (Means ± standard error, %) (Dermatophagoides farinae; 1 mg/tube, 48 hr) [a %] | Mortality (Means ± standard error, %) ([1]; 0.125 mg/tube, 24 hr) | Mortality (Means ± standard error, %) ([1]; 0.125 mg/tube, 48 hr) | Mortality (Means ± standard error, %) ([1]; 0.2 mg/tube, 24 hr) | Mortality (Means ± standard error, %) ([1]; 0.2 mg/tube, 48 hr) | Mortality (Means ± standard error, %) ([1]; 0.25 mg/tube, 24 hr) | Mortality (Means ± standard error, %) ([1]; 0.25 mg/tube, 48 hr) | other results |
| --- | --- | --- | --- | --- | --- | --- | --- | --- | --- | --- | --- | --- | --- | --- | --- | --- | --- | --- | --- | --- | --- |
| CCN(CC)C(=O)c1cccc(C)c1 [DEET, reference compound] | – | – | – | – | – | – | – | – | – | – | – | – | – | – | – | – | – | – | – | – | Mortality (Means ± standard error, %) (Dermatophagoides farinae; [3]): 96.8%; Mortality (Means ± standard error, %) [1, 3]: 16.8% |
| C=CCN=C=S [allyl isothiocyanate] | 1.0 ± 1.0 e % | 0 e % | 6.0 ± 1.2 d % | 9.0% | 7.0 ± 3.0 d % | 8.0% | 22.0 ± 2.6 c % | 27.0% | 44.0 ± 2.8 | 46.0% | 90.0 ± 2.6 a % | 97.0% | 100 a % | 100 | 6.0 ± 3.5 d % | 9.0 ± 2.5 c % | 7.0 ± 1.0 cd % | 9.0 ± 1.0 c % | 9.0 ± 1.9 cd % | 10.0 ± 2.6 bc % | acaricidal activity / mortality against two species of house dust mites (house dust mites): 100%; acaricidal activity (house dust mites): no significant acaricidal activity; Mortality (Means ± standard error, %) (Dermatophagoides farinae; [4]): 94%; Mortality (Means ± standard error, %) ([1]; 0.3 mg/tube, 24 hr): 25.0 ± 2.5 bc %; Mortality (Means ± standard error, %) ([1]; 0.3 mg/tube, 48 hr): 32.0 ± 2.8 b %; Mortality (Means ± standard error, %) ([1]; 0.4 mg/tube, 24 hr): 33.0 ± 2.5 b %; Mortality (Means ± standard error, %) ([1]; 0.4 mg/tube, 48 hr): 42.0 ± 4.2 b %; Mortality (Means ± standard error, %) ([1]; 0.5 mg/tube, 24 hr): 92.0 ± 2.6 a %; Mortality (Means ± standard error, %) ([1]; 0.5 mg/tube, 48 hr): 94.0 ± 2.6 a %; Mortality (Means ± standard error, %) [1, 4]: 96%; Mortality (Means ± standard error, %) ([1]; 1 mg/tube, 24 hr): 100 a %; Mortality (Means ± standard error, %) ([1]; 1 mg/tube, 48 hr): 100 a % |
| CCCCN=C=S [butyl isothiocyanate] | 1.0 ± 1.0 d % | 2.0% | 1.0 ± 1.0 e % | 3.0% | 20.0 ± 1.6 c % | 27.0% | 26.0 ± 2.0 c % | 34.0% | 44.0 ± 2.8 | 48.0% | 84.0 ± 5.2 a % | 94.0% | 99.0 ± 1.0 a % | 100 | 1.0 ± 1.0 d % | 2.0 ± 1.2 d % | 7.0 ± 1.0 cd % | 7.0 ± 1.0 cd % | 21.0 ± 2.5 cd % | 30.0 ± 8.7 bc % | acaricidal activity / mortality against two species of house dust mites (house dust mites): 100%; acaricidal activity (house dust mites): no significant acaricidal activity; Mortality (Means ± standard error, %) (Dermatophagoides farinae; [5]): 97%; Mortality (Means ± standard error, %) ([1]; 0.3 mg/tube, 24 hr): 32.0 ± 1.6 bc %; Mortality (Means ± standard error, %) ([1]; 0.3 mg/tube, 48 hr): 39.0 ± 2.5 bc %; Mortality (Means ± standard error, %) ([1]; 0.4 mg/tube, 24 hr): 39.0 ± 2.5 b %; Mortality (Means ± standard error, %) ([1]; 0.4 mg/tube, 48 hr): 45.0 ± 2.5 b %; Mortality (Means ± standard error, %) ([1]; 0.5 mg/tube, 24 hr): 92.0 ± 2.6 a %; Mortality (Means ± standard error, %) ([1]; 0.5 mg/tube, 48 hr): 96.0 ± 2.3 a %; Mortality (Means ± standard error, %) [1, 5]: 94%; Mortality (Means ± standard error, %) ([1]; 1 mg/tube, 24 hr): 99.0 a^c %; Mortality (Means ± standard error, %) ([1]; 1 mg/tube, 48 hr): 100 a % |
| OC/C=C/c1ccccc1 [cinnamyl alcohol] | 1.0 ± 1.0d % | 2.0 ± 1.2c % | 7.0 ± 1.0c % | 7.0 ± 1.0c % | 10.0 ± 3.8c % | 10.0 ± 4.1c % | 39.0 ± 2.6b % | 45.0 ± 1.9b % | 58.0 ± 2.6 | 65.0 ± 1.9ab % | 90.0% | 97.0 ± 1.9a % | 99.0 ± 1.0a % | 100 | 1.0 ± 1.0e % | 3.0 ± 1.9d % | 6.0 ± 1.2d % | 10.0 ± 1.2c % | 15.0 ± 1.9d % | 14.0 ± 2.6c % | Mortality (Means ± standard error, %) ([1]; 0.3 mg/tube, 24 hr): 35.0 ± 2.5c %; Mortality (Means ± standard error, %) ([1]; 0.3 mg/tube, 48 hr): 40.0 ± 3.7b %; Mortality (Means ± standard error, %) ([1]; 0.4 mg/tube, 24 hr): 56.0 ± 2.8b %; Mortality (Means ± standard error, %) ([1]; 0.4 mg/tube, 48 hr): 62.0 ± 2.6b %; Mortality (Means ± standard error, %) ([1]; 0.5 mg/tube, 24 hr): 90.0%; Mortality (Means ± standard error, %) ([1]; 0.5 mg/tube, 48 hr): 97.0 ± 1.9a %; Mortality (Means ± standard error, %) ([1]; 1 mg/tube, 24 hr): 99.0 ± 1.0a %; Mortality (Means ± standard error, %) ([1]; 1 mg/tube, 48 hr): 100a % |
| CCCCOC(=O)c1ccccc1C(=O)OCCCC [dibutyl phtalate, reference compound] | – | – | – | – | – | – | – | – | – | – | – | – | – | – | – | – | – | – | – | – | Mortality (Means ± standard error, %) (Dermatophagoides farinae; [3]): 92.0%; Mortality (Means ± standard error, %) [1, 3]: 95.2% |
| CCN(CC)c1nc(C)cc(OP(=S)(OC)OC)n1 [pirimiphos-methyl] | – | – | – | – | – | – | – | – | – | – | – | – | – | – | – | – | – | – | – | – | control of mites inhabiting carpets ([2]; carpets): 60%; control of mites inhabiting chairs ([2]; chairs): 50% |
| O=C/C=C/c1ccccc1 [trans-cinnamaldehyde] | 18.0 ± 2.6d % | 23.0 ± 3.4c % | 19.0 ± 2.5cd % | 29.0 ± 1.9bc % | 21.0 ± 2.5cd % | 30.0 ± 8.7bc % | 32.0 ± 1.6bc % | 39.0 ± 2.5bc % | 41.0 ± 2.5 | 45.0 ± 2.5b % | 94.0% | 96.0 ± 2.3a % | 99.0 a^c % | 100 | 6.0 ± 3.5d % | 9.0 ± 2.5c % | 7.0 ± 1.0cd % | 9.0 ± 1.0c % | 9.0 ± 1.9cd % | 10.0 ± 2.6bc % | Mortality (Means ± standard error, %) ([1]; 0.3 mg/tube, 24 hr): 25.0 ± 2.5bc %; Mortality (Means ± standard error, %) ([1]; 0.3 mg/tube, 48 hr): 32.0 ± 2.8b %; Mortality (Means ± standard error, %) ([1]; 0.4 mg/tube, 24 hr): 33.0 ± 2.5b %; Mortality (Means ± standard error, %) ([1]; 0.4 mg/tube, 48 hr): 42.0 ± 4.2b %; Mortality (Means ± standard error, %) ([1]; 0.5 mg/tube, 24 hr): 84.0%; Mortality (Means ± standard error, %) ([1]; 0.5 mg/tube, 48 hr): 94.0 ± 2.6a %; Mortality (Means ± standard error, %) ([1]; 1 mg/tube, 24 hr): 100a %; Mortality (Means ± standard error, %) ([1]; 1 mg/tube, 48 hr): 100a % |
